Test results reported in patent US8952024B2, “Herbicidal pyrimidone derivatives” (E I du Pont de Nemours and Company, priority 2009, dated 2015).

Tests used:
Format in all cases: in vivo
[1] = system: umbrella sedge (Cyperus difformis); assay: Test B flooded paddy test; conditions: for Plant response rating, Flood, Sedge, Umbrella: 250 g ai/ha, flooded paddy test, visual rating on 0 to 100 scale (0 no effect, 100 complete control) after 13 to 15 days; for Plant response rating, Sedge, Umbrella: Flood (flooded paddy test), 13 to 15 days; for Sedge, Umbrella plant response rating: Flood, 31 g ai/ha, scale 0 to 100 (0 no effect, 100 complete control)
Summary of the method: (§1)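 Flooded-pot test: water raised to 3 cm above soil when treating, compound put in the water, level unchanged thereafter. Plants were at 2 leaves. Readout after 13 to 15 days, visual, relative to controls; 0 signifies no effect and 100 complete control.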

[2] = system: ducksalad (Heteranthera limosa); assay: Test B flooded paddy test; conditions: for Plant response rating, Flood, Ducksalad: 250 g ai/ha, flooded paddy test, visual rating on 0 to 100 scale (0 no effect, 100 complete control) after 13 to 15 days; for Plant response rating, Ducksalad: Flood (flooded paddy test), 13 to 15 days; for Ducksalad plant response rating: Flood, 31 g ai/ha, scale 0 to 100 (0 no effect, 100 complete control)
Summary of the method: as §1

[3] = system: barnyardgrass (Echinochloa crus-galli); assay: Test B flooded paddy test; conditions: for Plant response rating, Flood, Barnyardgrass: 250 g ai/ha, flooded paddy test, visual rating on 0 to 100 scale (0 no effect, 100 complete control) after 13 to 15 days; for Plant response rating, Barnyardgrass: Flood (flooded paddy test), 13 to 15 days; for Barnyardgrass plant response rating: Flood, 31 g ai/ha, scale 0 to 100 (0 no effect, 100 complete control)
Summary of the method: as §1

[4] = system: rice (Oryza sativa); assay: Test B flooded paddy test; conditions: for Plant response rating, Flood, Rice: 250 g ai/ha, flooded paddy test, visual rating on 0 to 100 scale (0 no effect, 100 complete control) after 13 to 15 days; for Plant response rating, Rice: Flood (flooded paddy test), 13 to 15 days; for Rice plant response rating: Flood, 31 g ai/ha, scale 0 to 100 (0 no effect, 100 complete control)
Summary of the method: as §1

[5] = system: canarygrass (Phalaris minor); assay: Test B postemergence plant response; conditions: for Canarygrass plant response rating (0 to 100 scale): 62 g ai/ha, 0 is no effect, 13 to 15 days
Summary of the method: (§2)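 Visual ratings from 0 (no effect) to 100 (complete control), made against controls 13–15 days after treatment, kept in a greenhouse. Compounds were applied postemergence to potted plants at the 1- to 4-leaf stage (2–18 cm).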

[6] = system: chickweed (Stellaria media); assay: Test B postemergence plant response; conditions: for Chickweed plant response rating (0 to 100 scale): 62 g ai/ha, 0 is no effect, 13 to 15 days
Summary of the method: as §2

[7] = system: winter barley (Hordeum vulgare); assay: Test B postemergence plant response; conditions: for Barley plant response rating (0 to 100 scale): 62 g ai/ha, 0 is no effect, 13 to 15 days
Summary of the method: as §2

[8] = system: windgrass (Apera spica-venti); assay: Test B postemergence plant response; conditions: for Windgrass plant response rating (0 to 100 scale): 62 g ai/ha, postemergence, 0 is no effect, 100 is complete control, 13 to 15 days; for Plant response rating, Windgrass: Postemergence, scale 0 to 100 (0 no effect, 100 complete control)
Summary of the method: as §2

[9] = system: wild oat (Avena fatua); assay: Test B pre-/postemergence plant response; conditions: for Oat, Wild plant response rating (0 to 100 scale): 62 g ai/ha, 0 is no effect, 13 to 15 days
Summary of the method: (§3)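 Seeds sown in loam–sand blend were treated preemergence, and plants at 2–18 cm (1- to 4-leaf stage) in peat-based medium were treated postemergence; compounds were formulated in non-phytotoxic solvent with surfactant. After 13–15 days in greenhouse, response was visually rated against controls, 0 (no effect) to 100 (complete control).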

[10] = system: pigweed (Amaranthus retroflexus); assay: Test B pre-/postemergence plant response; conditions: for Pigweed plant response rating (0 to 100 scale): 62 g ai/ha, 0 is no effect, 13 to 15 days
Summary of the method: as §3

[11] = 62 g ai/ha, scale of 0 to 100 where 0 is no effect and 100 is complete control
[12] = 125 g ai/ha, scale 0 to 100, 0 is no effect, 100 is complete control
[13] = 31 g ai/ha, postemergence, scale 0 to 100, 0 is no effect, 100 is complete control
[14] = postemergence, 100 is complete control
[15] = Postemergence, 125 g ai/ha, scale 0 to 100 (0 no effect, 100 complete control)
[16] = Postemergence, 250 g ai/ha, scale 0 to 100 (0 no effect, 100 complete control)

Structure (SMILES) | Plant response rating, Flood, Sedge, Umbrella [1] | Plant response rating, Sedge, Umbrella [1, 11] | Plant response rating, Sedge, Umbrella [1, 12] | Sedge, Umbrella plant response rating [1] | Plant response rating, Flood, Ducksalad [2] | Plant response rating, Ducksalad [2, 11] | Plant response rating, Ducksalad [2, 12] | Ducksalad plant response rating [2] | Plant response rating, Flood, Barnyardgrass [3] | Plant response rating, Barnyardgrass [3, 11] | Plant response rating, Barnyardgrass [3, 12] | Barnyardgrass plant response rating [3] | Plant response rating, Rice [4, 11] | Plant response rating, Rice [4, 12] | Rice plant response rating [4] | Plant response rating, Canarygrass [5, 13] | Canarygrass plant response rating (0 to 100 scale) [5, 14] | Plant response rating, Canarygrass [5, 15] | Plant response rating, Canarygrass [5, 16] | Plant response rating, Chickweed [6, 13] | further results
O=C1CCCC(O)=C1C(=O)c1cnc(-c2ccsc2)n(C2CCCCC2)c1=O [Compound 99] | 85 | 50 | 65 | 50 | 80 | 40 | 75 | 30 | 55 | 20 | 20 | 0 | 0 | 0 | 0 | 40 | 60 | 60 | 70 | 80 | Plant response rating, Flood, Rice [4]: 60; Chickweed plant response rating (0 to 100 scale) [6, 14]: 98; Plant response rating, Chickweed [6, 15]: 98; Plant response rating, Chickweed [6, 16]: 98; Plant response rating, Barley [7, 13]: 5; Barley plant response rating (0 to 100 scale) [7, 14]: 5; Plant response rating, Barley [7, 15]: 10; Plant response rating, Barley [7, 16]: 30; Windgrass plant response rating (0 to 100 scale) [8]: 5; Plant response rating, Windgrass ([8]; 125 g ai/ha): 10; Plant response rating, Windgrass ([8]; 250 g ai/ha): 60; Plant response rating, Oat, Wild [9, 13]: 10; Oat, Wild plant response rating (0 to 100 scale) [9, 14]: 20; Plant response rating, Oat, Wild [9, 15]: 40; Plant response rating, Oat, Wild [9, 16]: 80; Plant response rating, Pigweed [10, 13]: 100; Pigweed plant response rating (0 to 100 scale) [10, 14]: 100; Plant response rating, Pigweed [10, 15]: 100; Plant response rating, Pigweed [10, 16]: 100
CCCn1c(-c2cccc(OC)c2)ncc(C(=O)C2=C(O)CCCC2=O)c1=O [Compound 100] | 85 | 75 | 80 | 40 | 85 | 75 | 85 | 35 | 75 | 45 | 60 | 20 | 30 | 35 | 0 | 0 | 5 | 5 | 10 | 75 | Chickweed plant response rating (0 to 100 scale) [6, 14]: 75; Plant response rating, Chickweed [6, 15]: 95; Plant response rating, Chickweed [6, 16]: 100; Plant response rating, Barley [7, 13]: 5; Barley plant response rating (0 to 100 scale) [7, 14]: 20; Plant response rating, Barley [7, 15]: 30; Plant response rating, Barley [7, 16]: 50; Windgrass plant response rating (0 to 100 scale) [8]: 40; Plant response rating, Windgrass ([8]; 125 g ai/ha): 45; Plant response rating, Oat, Wild [9, 13]: 0; Oat, Wild plant response rating (0 to 100 scale) [9, 14]: 10; Plant response rating, Oat, Wild [9, 15]: 30; Plant response rating, Oat, Wild [9, 16]: 30; Plant response rating, Pigweed [10, 13]: 90; Pigweed plant response rating (0 to 100 scale) [10, 14]: 98; Plant response rating, Pigweed [10, 15]: 98; Plant response rating, Pigweed [10, 16]: 98
COCCn1c(-c2cccs2)ncc(C(=O)C2=C(O)CCCC2=O)c1=O [Compound 108] | 95 | 40 | 60 | 0 | 70 | 50 | 60 | 40 | 30 | 0 | 15 | 0 | 0 | 0 | 0 | 0 | 5 | 5 | 5 | 85 | Plant response rating, Flood, Rice [4]: 10; Chickweed plant response rating (0 to 100 scale) [6, 14]: 100; Plant response rating, Chickweed [6, 15]: 100; Plant response rating, Chickweed [6, 16]: 100; Plant response rating, Barley [7, 13]: 0; Barley plant response rating (0 to 100 scale) [7, 14]: 0; Plant response rating, Barley [7, 15]: 0; Plant response rating, Barley [7, 16]: 0; Windgrass plant response rating (0 to 100 scale) [8]: 10; Plant response rating, Windgrass ([8]; 125 g ai/ha): 30; Plant response rating, Oat, Wild [9, 13]: 0; Oat, Wild plant response rating (0 to 100 scale) [9, 14]: 0; Plant response rating, Oat, Wild [9, 15]: 0; Plant response rating, Oat, Wild [9, 16]: 0; Plant response rating, Pigweed [10, 13]: 95; Pigweed plant response rating (0 to 100 scale) [10, 14]: 98; Plant response rating, Pigweed [10, 15]: 100; Plant response rating, Pigweed [10, 16]: 100
O=C1CCCC(O)=C1C(=O)c1cnc(-c2cccs2)n(CC2CCCO2)c1=O (stereo not shown) [Compound 109] | 80 | 60 | 75 | 50 | 100 | 60 | 65 | 50 | 20 | 0 | 20 | 0 | 0 | 20 | 0 | 0 | 0 | 30 | 45 | 90 | Plant response rating, Flood, Rice [4]: 25; Chickweed plant response rating (0 to 100 scale) [6, 14]: 98; Plant response rating, Chickweed [6, 15]: 98; Plant response rating, Chickweed [6, 16]: 100; Plant response rating, Barley [7, 13]: 0; Barley plant response rating (0 to 100 scale) [7, 14]: 0; Plant response rating, Barley [7, 15]: 5; Plant response rating, Barley [7, 16]: 5; Windgrass plant response rating (0 to 100 scale) [8]: 40; Plant response rating, Windgrass ([8]; 125 g ai/ha): 60; Plant response rating, Oat, Wild [9, 13]: 0; Oat, Wild plant response rating (0 to 100 scale) [9, 14]: 0; Plant response rating, Oat, Wild [9, 15]: 30; Plant response rating, Oat, Wild [9, 16]: 40; Plant response rating, Pigweed [10, 13]: 100; Pigweed plant response rating (0 to 100 scale) [10, 14]: 100; Plant response rating, Pigweed [10, 15]: 100; Plant response rating, Pigweed [10, 16]: 100
COCCn1c(-c2ccco2)ncc(C(=O)C2=C(O)CCCC2=O)c1=O [Compound 111] | 85 | 75 | 80 | 0 | 75 | 30 | 75 | 30 | 60 | 40 | 50 | 0 | 0 | 0 | 0 | 0 | 0 | 0 | 15 | 95 | Plant response rating, Flood, Rice [4]: 30; Chickweed plant response rating (0 to 100 scale) [6, 14]: 100; Plant response rating, Chickweed [6, 15]: 100; Plant response rating, Chickweed [6, 16]: 100; Plant response rating, Barley [7, 13]: 0; Barley plant response rating (0 to 100 scale) [7, 14]: 0; Plant response rating, Barley [7, 15]: 5; Plant response rating, Barley [7, 16]: 30; Windgrass plant response rating (0 to 100 scale) [8]: 30; Plant response rating, Windgrass ([8]; 125 g ai/ha): 35; Plant response rating, Oat, Wild [9, 13]: 0; Oat, Wild plant response rating (0 to 100 scale) [9, 14]: 0; Plant response rating, Oat, Wild [9, 15]: 0; Plant response rating, Oat, Wild [9, 16]: 10; Plant response rating, Pigweed [10, 13]: 95; Pigweed plant response rating (0 to 100 scale) [10, 14]: 100; Plant response rating, Pigweed [10, 15]: 100; Plant response rating, Pigweed [10, 16]: 100
